Here are results for six molecules from ChEMBL document CHEMBL1150012, “Enantioselective synthesis of a pyrrolo-benzothiadiazine derivative S 18986, a new AMPA receptor positive modulator” (Bioorg Med Chem Lett, 1996).

The target in assay [1] is Glutamate receptor 1 (Rattus norvegicus) (UniProt P19490). Description: (§1) Compound was evaluated to potentiate response of AMPA-activated current in Xenopus oocytes expressing Ionotropic glutamate receptor AMPA. It is filed as functional, cell-based. The settings on record: Oocyte.
Glutamate receptor 1 (Rattus norvegicus), sequence (P19490 whole entry): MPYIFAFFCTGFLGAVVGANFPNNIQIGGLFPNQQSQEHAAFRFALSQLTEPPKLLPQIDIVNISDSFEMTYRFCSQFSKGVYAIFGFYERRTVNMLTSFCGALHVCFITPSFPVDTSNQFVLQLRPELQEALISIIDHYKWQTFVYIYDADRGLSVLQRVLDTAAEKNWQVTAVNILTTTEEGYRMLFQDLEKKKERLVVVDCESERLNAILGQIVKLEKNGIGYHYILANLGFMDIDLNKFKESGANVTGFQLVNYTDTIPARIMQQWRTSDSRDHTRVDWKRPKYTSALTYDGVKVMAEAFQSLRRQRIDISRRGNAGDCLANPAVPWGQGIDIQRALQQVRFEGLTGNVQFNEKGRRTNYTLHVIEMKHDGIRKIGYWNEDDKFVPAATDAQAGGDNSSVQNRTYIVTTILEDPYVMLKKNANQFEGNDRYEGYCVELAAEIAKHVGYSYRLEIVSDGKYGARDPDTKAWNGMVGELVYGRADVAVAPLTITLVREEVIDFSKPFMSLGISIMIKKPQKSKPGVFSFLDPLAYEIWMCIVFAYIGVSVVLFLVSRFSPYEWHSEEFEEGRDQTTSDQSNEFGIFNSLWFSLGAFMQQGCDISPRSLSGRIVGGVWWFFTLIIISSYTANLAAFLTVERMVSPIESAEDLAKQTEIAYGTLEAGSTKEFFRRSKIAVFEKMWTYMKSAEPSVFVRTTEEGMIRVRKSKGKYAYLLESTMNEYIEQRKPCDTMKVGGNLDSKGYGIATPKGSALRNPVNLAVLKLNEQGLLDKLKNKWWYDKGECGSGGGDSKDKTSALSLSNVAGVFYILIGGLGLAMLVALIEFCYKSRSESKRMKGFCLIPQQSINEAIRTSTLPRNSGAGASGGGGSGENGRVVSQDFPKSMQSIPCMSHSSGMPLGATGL
Assay [2] concerns the target Glutamate receptor ionotropic AMPA (Homo sapiens) (UniProt P48058+P42263+P42262+P42261). The assay is described as §1. It is filed as functional, cell-based. The settings on record: Oocyte.
For assay [3], the target named is Glutamate receptor ionotropic kainate (Homo sapiens) (UniProt P39086+Q16478+Q16099+Q13002+Q13003). As to the kind of experiment: Compound was evaluated to potentiate response to Ionotropic glutamate receptor kainate. It is filed as protein-complex assay.
Assay [4] has as its target Glutamate [NMDA] receptor (Homo sapiens) (UniProt Q05586+Q12879+Q13224+O15399+O60391+Q14957+Q8TCU5). As to the kind of experiment: Compound was evaluated to potentiate response to NMDA receptor. It is filed as protein-complex assay.

For `O=S1(=O)NC2CCCN2c2ccccc21` (racemic), in assay [1], the EC2x is 60 µM and the EC5x was 160 µM.
The like results for `NS(=O)(=O)c1cc2c(cc1Cl)NC(C1CC3C=CC1C3)NS2(=O)=O` (configuration not stated) were, in that order, 2 µM and 10 µM.
With `O=C(c1ccc2c(c1)OCO2)N1CCCCC1`, in assay [1], the EC2x is 300 µM.
For the molecule `O=C(c1ccc2c(c1)OCCO2)N1CC=CCC1`, in assay [1], the EC2x turned out to be 45 µM and the EC5x came to 110 µM.
On to `O=S1(=O)N[C@@H]2CCCN2c2ccccc21`, for which the EC2x in assay [1] was 300 µM.
Regarding `O=S1(=O)N[C@H]2CCCN2c2ccccc21`, the EC2x in assay [2] was 35 µM; in assay [3] it was above 300 µM; in assay [4], above 300 µM. Besides, the EC5x in assay [2] was 70 µM.
